Assay results from US20260159499A1, “COMPOUND AS FAK INHIBITOR AND USE THEREOF” (WIGEN BIOMEDICINE TECHNOLOGY (SHANGHAI) CO., LTD., priority 2021, published 2026).

Legend:
FAK recombinant protein = FAK recombinant protein (Homo sapiens, UniProt Q05397); experiment: Inhibitory activity against FAK enzyme; type: biochemical; details: TK substrate, ATP
Description: The compound serially diluted with DMSO and a FAK recombinant protein were mixed, and the mixture was left to stand at room temperature for 10 min. A biotin-labeled TK substrate (TK) and ATP were then added. […] After the mixture was incubated at room temperature for 1 h, the fluorescence intensity at 615 nm and 665 nm was measured. The ratio of the fluorescence intensity at 665 nm and 615 nm was calculated. The inhibition percentages and IC50 of the compounds were calculated compared to the DMSO control group.

PC3 cells [1] = experiment: PC3 cell proliferation, 2D activity detection; type: cell-based, human; details: PC3, 2D, 72 h, class symbol, read-out: 2D IC50 against PC3 cells
Description: 2D activity detection: 1200 PC3 cells were seeded in a 96-well plate. After overnight adherence culture, the compound serially diluted was added. 72 h after addition, Cell Titer-Lumi (Beyotime C0068XL) was added to measure the ATP content in the cells. The growth of the cells was evaluated, and IC50 of the compounds against cell growth was calculated.

PC3 cells [2] = experiment: PC3 cell proliferation, 3D activity detection; type: cell-based, human; details: PC3, 3D culture, 14 days, read-out: 3D IC50 against PC3 cells
Description: 3D activity detection: PC3 cells were seeded in a 96-well plate at 1200 cells/well, and 3D culture was performed. 14 days after the compound serially diluted was added, the growth of the cells was determined. The inhibition percentage and IC50 of the compound were calculated compared to the DMSO control group.

[3] = Homo sapiens, PC-3, 336 h, class symbol

FAK recombinant protein, sequence (Q05397 whole entry, species assumed): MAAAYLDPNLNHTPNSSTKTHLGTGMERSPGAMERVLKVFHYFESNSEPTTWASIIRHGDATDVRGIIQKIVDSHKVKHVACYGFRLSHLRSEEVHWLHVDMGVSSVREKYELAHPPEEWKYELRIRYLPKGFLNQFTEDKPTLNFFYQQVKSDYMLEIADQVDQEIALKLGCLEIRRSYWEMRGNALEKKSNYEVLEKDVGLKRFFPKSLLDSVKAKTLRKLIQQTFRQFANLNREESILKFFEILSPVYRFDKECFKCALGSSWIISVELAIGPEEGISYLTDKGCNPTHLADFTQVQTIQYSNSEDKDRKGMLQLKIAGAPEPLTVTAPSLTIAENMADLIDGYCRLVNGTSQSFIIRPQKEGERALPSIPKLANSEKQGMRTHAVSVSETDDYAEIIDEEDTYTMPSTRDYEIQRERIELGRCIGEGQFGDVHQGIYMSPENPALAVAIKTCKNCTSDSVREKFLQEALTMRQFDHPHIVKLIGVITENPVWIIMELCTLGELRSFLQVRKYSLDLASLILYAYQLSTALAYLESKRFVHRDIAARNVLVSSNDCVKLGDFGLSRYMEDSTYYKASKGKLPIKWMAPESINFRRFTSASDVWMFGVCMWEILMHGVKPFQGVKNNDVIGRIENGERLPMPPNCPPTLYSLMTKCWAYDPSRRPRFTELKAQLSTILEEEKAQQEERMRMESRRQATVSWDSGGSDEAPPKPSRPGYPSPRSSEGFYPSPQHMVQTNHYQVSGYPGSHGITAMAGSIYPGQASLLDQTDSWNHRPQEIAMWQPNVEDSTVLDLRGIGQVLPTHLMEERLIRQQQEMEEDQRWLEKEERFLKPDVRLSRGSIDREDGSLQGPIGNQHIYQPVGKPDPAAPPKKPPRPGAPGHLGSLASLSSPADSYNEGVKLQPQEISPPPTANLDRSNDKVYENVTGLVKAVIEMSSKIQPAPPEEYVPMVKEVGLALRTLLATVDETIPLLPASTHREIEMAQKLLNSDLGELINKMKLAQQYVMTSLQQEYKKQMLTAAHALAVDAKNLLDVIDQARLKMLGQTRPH

CNC(=O)c1ccccc1Oc1nc(Nc2cc(F)c(C(=O)NC3CC4(CCN(C)CC4)C3)cc2OC)ncc1C(F)(F)F [Compound 1, 2-fluoro-5-methoxy-N-(7-methyl-7-azaspiro[3.5]nonan-2-yl)-4-((4-(2-(methylcarbamoyl)phenoxy)-5-(trifluoromethyl)pyrimidin-2-yl)amino)benzamide]
IC50 (FAK recombinant protein): < 10 nM
IC50 (PC3 cells [1]; Homo sapiens, PC-3): > 2000 nM
IC50 (PC3 cells [2]; [3]): 5 to 50 nM

CNC(=O)c1ccccc1Oc1nc(Nc2cc(F)c(C(=O)NC3CCC4(CC3)CN(C)C4)cc2OC)ncc1C(F)(F)F [Compound 2]
IC50 (FAK recombinant protein): < 10 nM
IC50 (PC3 cells [1]; Homo sapiens, PC-3): > 2000 nM
IC50 (PC3 cells [2]; [3]): 5 to 50 nM

CNC(=O)c1ccccc1Oc1nc(Nc2cc(F)c(C(=O)NC3CC4(CCN(C)CC4)CO3)cc2OC)ncc1C(F)(F)F (stereo not drawn) [Compound 3]
IC50 (FAK recombinant protein): < 10 nM
IC50 (PC3 cells [1]; Homo sapiens, PC-3): > 2000 nM
IC50 (PC3 cells [2]; [3]): 5 to 50 nM

CNC(=O)c1ccccc1Oc1nc(Nc2cc(F)c(C(=O)NC3CC4(CCN(C)C4)CO3)cc2OC)ncc1C(F)(F)F (stereo not drawn) [Compound 5]
IC50 (FAK recombinant protein): < 10 nM
IC50 (PC3 cells [1]; Homo sapiens, PC-3): > 2000 nM
IC50 (PC3 cells [2]; [3]): 5 to 50 nM

CNC(=O)c1ccccc1Oc1nc(Nc2cc(F)c(C(=O)NC3CCC4(CC3)CCN(C)CC4)cc2OC)ncc1C(F)(F)F [Compound 9]
IC50 (FAK recombinant protein): 10 to 50 nM
IC50 (PC3 cells [1]; Homo sapiens, PC-3): > 2000 nM
IC50 (PC3 cells [2]; [3]): 5 to 50 nM

COc1cc(C(=O)NC2CC3(CCN(C)CC3)C2)c(F)cc1Nc1ncc(C(F)(F)F)c(Oc2ccccc2N(C)S(C)(=O)=O)n1 [Compound 10]
IC50 (FAK recombinant protein): < 10 nM
IC50 (PC3 cells [1]; Homo sapiens, PC-3): > 2000 nM
IC50 (PC3 cells [2]; [3]): < 5 nM

COc1cc(C(=O)NC2CCC3(CCN(C)CC3)C2)c(F)cc1Nc1ncc(C(F)(F)F)c(Oc2ccccc2N(C)S(C)(=O)=O)n1 (stereo not drawn) [Compound 11]
IC50 (FAK recombinant protein): < 10 nM
IC50 (PC3 cells [1]; Homo sapiens, PC-3): > 2000 nM
IC50 (PC3 cells [2]; [3]): 5 to 50 nM

COc1cc(C(=O)NC2CC3(CCN(C)CC3)CO2)c(F)cc1Nc1ncc(C(F)(F)F)c(Oc2ccccc2N(C)S(C)(=O)=O)n1 (stereo not drawn) [Compound 12]
IC50 (FAK recombinant protein): < 10 nM
IC50 (PC3 cells [1]; Homo sapiens, PC-3): > 2000 nM
IC50 (PC3 cells [2]; [3]): < 5 nM

COc1cc(C(=O)NC2CCC3(CCN(C)C3)C2)c(F)cc1Nc1ncc(C(F)(F)F)c(Oc2ccccc2N(C)S(C)(=O)=O)n1 (stereo not drawn) [Compound 13]
IC50 (FAK recombinant protein): < 10 nM
IC50 (PC3 cells [1]; Homo sapiens, PC-3): > 2000 nM
IC50 (PC3 cells [2]; [3]): 5 to 50 nM

COc1cc(C(=O)NC2CC3(CCN(C)C3)CO2)c(F)cc1Nc1ncc(C(F)(F)F)c(Oc2ccccc2N(C)S(C)(=O)=O)n1 (stereo not drawn) [Compound 14]
IC50 (FAK recombinant protein): < 10 nM
IC50 (PC3 cells [1]; Homo sapiens, PC-3): > 2000 nM
IC50 (PC3 cells [2]; [3]): < 5 nM

COc1cc(C(=O)NC2COC3(CCN(C)C3)C2)c(F)cc1Nc1ncc(C(F)(F)F)c(Oc2ccccc2N(C)S(C)(=O)=O)n1 (stereo not drawn) [Compound 15]
IC50 (FAK recombinant protein): < 10 nM
IC50 (PC3 cells [1]; Homo sapiens, PC-3): > 2000 nM
IC50 (PC3 cells [2]; [3]): < 5 nM

COc1cc(C(=O)NC2CCC3(CC2)CCN(C)CC3)c(F)cc1Nc1ncc(C(F)(F)F)c(Oc2ccccc2N(C)S(C)(=O)=O)n1 [Compound 16]
IC50 (FAK recombinant protein): 10 to 50 nM
IC50 (PC3 cells [1]; Homo sapiens, PC-3): > 2000 nM
IC50 (PC3 cells [2]; [3]): 5 to 50 nM

COc1cc(C(=O)NC2CCC3(CC2)CN(C)C3)c(F)cc1Nc1ncc(C(F)(F)F)c(Oc2ccccc2N(C)S(C)(=O)=O)n1 [Compound 17]
IC50 (FAK recombinant protein): < 10 nM
IC50 (PC3 cells [1]; Homo sapiens, PC-3): > 2000 nM
IC50 (PC3 cells [2]; [3]): 5 to 50 nM

COc1cc(C(=O)NC2CCC3(CC2)CCN3C)c(F)cc1Nc1ncc(C(F)(F)F)c(Oc2ccccc2N(C)S(C)(=O)=O)n1 (stereo not drawn) [Compound 18]
IC50 (FAK recombinant protein): < 10 nM
IC50 (PC3 cells [1]; Homo sapiens, PC-3): > 2000 nM
IC50 (PC3 cells [2]; [3]): 5 to 50 nM

COc1cc(C(=O)NC2CCC3(CC2)CCN3C)c(F)cc1Nc1ncc(C(F)(F)F)c(Oc2cccc3c2C(=O)N(C)C3)n1 (stereo not drawn) [Compound 22]
IC50 (FAK recombinant protein): < 10 nM
IC50 (PC3 cells [1]; Homo sapiens, PC-3): > 2000 nM
IC50 (PC3 cells [2]; [3]): < 5 nM

COc1cc(C(=O)NC2COC3(CCN(C)CC3)C2)c(F)cc1Nc1ncc(C(F)(F)F)c(Oc2cccc3c2C(=O)N(C)C3)n1 (stereo not drawn) [Compound 23]
IC50 (FAK recombinant protein): < 10 nM
IC50 (PC3 cells [1]; Homo sapiens, PC-3): > 2000 nM
IC50 (PC3 cells [2]; Homo sapiens, PC-3, 336 h, numeric (mean where marked *)): 3.71 nM

COc1cc(C(=O)NC2CCC3(CCN(C)CC3)C2)c(F)cc1Nc1ncc(C(F)(F)F)c(Oc2cccc3c2C(=O)N(C)C3)n1 (stereo not drawn) [Compound 24]
IC50 (FAK recombinant protein): < 10 nM
IC50 (PC3 cells [1]; Homo sapiens, PC-3): > 2000 nM
IC50 (PC3 cells [2]; [3]): 5 to 50 nM

COc1cc(C(=O)NC2CCC3(CC2)CCN(C)C3)c(F)cc1Nc1ncc(C(F)(F)F)c(Oc2cccc3c2C(=O)N(C)C3)n1 (stereo not drawn) [Compound 25]
IC50 (FAK recombinant protein): < 10 nM
IC50 (PC3 cells [1]; Homo sapiens, PC-3): > 2000 nM
IC50 (PC3 cells [2]; [3]): < 5 nM

COc1cc(C(=O)NC2CCC3(CC2)CCN(C)CC3)c(F)cc1Nc1ncc(C(F)(F)F)c(Oc2cccc3c2C(=O)N(C)C3)n1 [Compound 26]
IC50 (FAK recombinant protein): < 10 nM
IC50 (PC3 cells [1]; Homo sapiens, PC-3): > 2000 nM
IC50 (PC3 cells [2]; [3]): 5 to 50 nM

COc1cc(C(=O)NC2CCC3(CCN(C)C3)C2)c(F)cc1Nc1ncc(C(F)(F)F)c(Oc2cccc3c2C(=O)N(C)C3)n1 (stereo not drawn) [Compound 27]
IC50 (FAK recombinant protein): < 10 nM
IC50 (PC3 cells [1]; Homo sapiens, PC-3): > 2000 nM
IC50 (PC3 cells [2]; [3]): 5 to 50 nM

COc1cc(C(=O)NC2CCN3CCOC3C2)c(F)cc1Nc1ncc(C(F)(F)F)c(Oc2cccc3c2C(=O)N(C)C3)n1 (stereo not drawn) [Compound 30]
IC50 (FAK recombinant protein): < 10 nM
IC50 (PC3 cells [1]; Homo sapiens, PC-3): > 2000 nM
IC50 (PC3 cells [2]; [3]): 5 to 50 nM

COc1cc(C(=O)NC2CCN3CCN=C3C2)c(F)cc1Nc1ncc(C(F)(F)F)c(Oc2cccc3c2C(=O)N(C)C3)n1 (stereo not drawn) [Compound 31]
IC50 (FAK recombinant protein): < 10 nM
IC50 (PC3 cells [1]; Homo sapiens, PC-3): > 2000 nM
IC50 (PC3 cells [2]; [3]): 5 to 50 nM

COc1cc(C(=O)NC2CCn3ccnc3C2)c(F)cc1Nc1ncc(C(F)(F)F)c(Oc2cccc3c2C(=O)N(C)C3)n1 (stereo not drawn) [Compound 32]
IC50 (FAK recombinant protein): < 10 nM
IC50 (PC3 cells [1]; Homo sapiens, PC-3): > 2000 nM
IC50 (PC3 cells [2]; [3]): 5 to 50 nM

COc1cc(C(=O)NC2CCn3cnnc3C2)c(F)cc1Nc1ncc(C(F)(F)F)c(Oc2cccc3c2C(=O)N(C)C3)n1 (stereo not drawn) [Compound 33]
IC50 (FAK recombinant protein): < 10 nM
IC50 (PC3 cells [1]; Homo sapiens, PC-3): > 2000 nM
IC50 (PC3 cells [2]; [3]): 5 to 50 nM

COc1cc(C(=O)N2CCC3(CCN(C)CC3)CC2)c(F)cc1Nc1ncc(C(F)(F)F)c(Oc2cccc3c2C(=O)N(C)C3)n1 [Compound 35]
IC50 (FAK recombinant protein): > 50 nM
IC50 (PC3 cells [1]; Homo sapiens, PC-3): > 2000 nM
IC50 (PC3 cells [2]; [3]): > 50 nM

COc1cc(C(=O)N2CCC3(CCN(C)C3)C2)c(F)cc1Nc1ncc(C(F)(F)F)c(Oc2cccc3c2C(=O)N(C)C3)n1 (stereo not drawn) [Compound 36]
IC50 (FAK recombinant protein): < 10 nM
IC50 (PC3 cells [1]; Homo sapiens, PC-3): > 2000 nM
IC50 (PC3 cells [2]; [3]): 5 to 50 nM

COc1cc(C(=O)N2CCC3(CCN(C)C3)C2)c(F)cc1Nc1ncc(C(F)(F)F)c(Oc2cccc3c2C(=O)N(C)C3)n1 (stereo not drawn) [Compound 37]
IC50 (FAK recombinant protein): < 10 nM
IC50 (PC3 cells [1]): > 2000 nM
IC50 (PC3 cells [2]; class symbol): 5 to 50 nM

COc1cc(C(=O)N2CCC23CCN(C)CC3)c(F)cc1Nc1ncc(C(F)(F)F)c(Oc2cccc3c2C(=O)N(C)C3)n1 [Compound 38]
IC50 (FAK recombinant protein): 10 to 50 nM
IC50 (PC3 cells [1]; Homo sapiens, PC-3): > 2000 nM
IC50 (PC3 cells [2]; [3]): 5 to 50 nM

COc1cc(C(=O)N2CCC3(CCN(C)CC3)C2)c(F)cc1Nc1ncc(C(F)(F)F)c(Oc2cccc3c2C(=O)N(C)C3)n1 [Compound 39]
IC50 (FAK recombinant protein): < 10 nM
IC50 (PC3 cells [1]; Homo sapiens, PC-3): > 2000 nM
IC50 (PC3 cells [2]; [3]): 5 to 50 nM

COc1cc(C(=O)N2CCC3(CCCN(C)C3)C2)c(F)cc1Nc1ncc(C(F)(F)F)c(Oc2cccc3c2C(=O)N(C)C3)n1 (stereo not drawn) [Compound 40]
IC50 (FAK recombinant protein): < 10 nM
IC50 (PC3 cells [1]; Homo sapiens, PC-3): > 2000 nM
IC50 (PC3 cells [2]; [3]): 5 to 50 nM

COc1cc(C(=O)NC2CC3(CCNCC3)C2)c(F)cc1Nc1ncc(C(F)(F)F)c(Oc2cccc3c2C(=O)N(C)C3)n1 [Compound 41]
IC50 (FAK recombinant protein): 10 to 50 nM
IC50 (PC3 cells [1]; Homo sapiens, PC-3): > 2000 nM
IC50 (PC3 cells [2]; [3]): 5 to 50 nM

CCN1CCC2(CC1)CC(NC(=O)c1cc(OC)c(Nc3ncc(C(F)(F)F)c(Oc4cccc5c4C(=O)N(C)C5)n3)cc1F)C2 [Compound 42]
IC50 (FAK recombinant protein): < 10 nM
IC50 (PC3 cells [1]; Homo sapiens, PC-3): > 2000 nM
IC50 (PC3 cells [2]; [3]): < 5 nM

COc1cc(C(=O)NC2CC3(CCN(C)CC3)C2)c(Cl)cc1Nc1ncc(C(F)(F)F)c(Oc2cccc3c2C(=O)N(C)C3)n1 [Compound 43]
IC50 (FAK recombinant protein): < 10 nM
IC50 (PC3 cells [1]; Homo sapiens, PC-3): > 2000 nM
IC50 (PC3 cells [2]; [3]): < 5 nM

COc1cc(C(=O)NC2CCC3(CC2)CN(C)C3)c(Cl)cc1Nc1ncc(C(F)(F)F)c(Oc2cccc3c2C(=O)N(C)C3)n1 [Compound 44]
IC50 (FAK recombinant protein): < 10 nM
IC50 (PC3 cells [1]; Homo sapiens, PC-3): > 2000 nM
IC50 (PC3 cells [2]; [3]): 5 to 50 nM
